Measurements as given in US20240293587A1, “CXCR4-TARGETED DIAGNOSTIC AND THERAPEUTIC AGENTS WITH REDUCED SPECIES SELECTIVITY” (TECHNISCHE UNIVERSITÄT MÜNCHEN, priority 2018, published 2024).
Starred links: 1 amine or outer side, 2 acyl side, 3 side chain; linkers in the order of their positions; H or OH if unused. Non-standard residues stand in square brackets, D forms with d. Residues, ends and D or L forms follow the SMILES beside them. Groups on a side chain read outwards from the residue. *: point of attachment. dAla(N-(6-guanidinohexyl)) = C[C@@H](NCCCCCCNC(=N)N)C(=O)O; DOTA = O=C(O)CN1CCN(CC(=O)O)CCN(CC(=O)*)CCN(CC(=O)O)CC1; X2 = CC(=O)NCCCCNC(=N)NCCCCCCN([C@H](C)C(=O)[*:2])[*:1]; 2Nal = N[C@@H](Cc1ccc2ccccc2c1)C(=O)O; dNMeOrn = CN[C@H](CCCN)C(=O)O; 4Amb = NCc1ccc(C(=O)O)cc1

Legend:
[1] = molecular target: mouse CXCR4 (mCXCR4) (Mus musculus (Mouse), UniProt P70658); assay: Competition binding on Eμ-Myc1080 mouse B-cell lymphoma cells with [125I]R1 as radioligand; conditions: 200.000 cells/sample, [125I]R1 radioligand, mean ± SD
Description: (§1) For the determination of hCXCR4-affinity, competition binding experiments were performed using Jurkat cells and [^125I]FC131 or [^125I]R1 as radioligand. Affinity to mCXCR4 and rCXCR4 was determined using Eμ-Myc1080 mouse B-cell lyphoma cells ^57 or C6 rat glioma cells, respectively, and [^125I]R1 as the radioligand.
(§2) For IC50 determination using Jurkat or Eμ-Myc1080 cells, samples containing 2×10^5 cells (or 4×10^5 cells; exact cell number used in the respective evaluations is given in the results section) in Hank's balanced salt solution (HBSS)/1% Bovine Serum Albumin (BSA) were incubated with 100.000 cpm of the respective radioligand (approx. 0.1 nM) in the presence of increasing concentrations (10^−11 to 10^−5 M) of the respective peptide of interest (n=3 per concentration). The total sample volume was 250 μL. After incubation at room temperature (RT) for 120 min with gentle agitation (200 mot/min), the tubes were centrifuged (5 min, 450g, Megafuge 1.0, Heraeus Thermo Scientific) and the supernatant was carefully removed. After washing twice with 400 μL of cold HBSS, the amount of cell-bound radioligand was quantified using a […]-counter.
(§3) IC50 values were calculated using PRISM 6 software (Graph Pad Software, San Diego, CA) using a three-parameter sigmoidal dose response curve fit.

[2] = molecular target: T1, human CXCR4 (hCXCR4) (Homo sapiens (Human), UniProt P61073); assay: Competition binding on Jurkat cells with [125I]R1 as radioligand; conditions: 200.000 cells/sample, [125I]R1 radioligand, mean ± SD
Description: as §1, §2, §3

[3] = molecular target: T1, human CXCR4 (hCXCR4); assay: Competition binding on Jurkat cells with [125I]FC-131 as radioligand; conditions: [125I]FC-131 radioligand, mean ± SD
Description: as §1, §2, §3

[4] = molecular target: murine receptor (mCXCR4) (Mus musculus (Mouse), UniProt P70658); conditions: background statement; cited from earlier work
Sequence of murine receptor (mCXCR4) (P70658 whole entry): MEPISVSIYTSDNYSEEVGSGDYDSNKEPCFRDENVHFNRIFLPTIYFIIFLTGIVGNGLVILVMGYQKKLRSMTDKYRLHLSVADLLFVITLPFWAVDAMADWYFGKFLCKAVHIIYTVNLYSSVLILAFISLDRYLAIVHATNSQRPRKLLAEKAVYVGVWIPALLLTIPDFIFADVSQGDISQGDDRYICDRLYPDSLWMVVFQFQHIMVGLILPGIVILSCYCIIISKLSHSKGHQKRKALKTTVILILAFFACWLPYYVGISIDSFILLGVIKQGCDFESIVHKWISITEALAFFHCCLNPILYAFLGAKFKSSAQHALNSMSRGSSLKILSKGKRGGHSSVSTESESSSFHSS

Sequence of mouse CXCR4 (mCXCR4) (P70658 whole entry): as above
T1 sequence (P61073 whole entry): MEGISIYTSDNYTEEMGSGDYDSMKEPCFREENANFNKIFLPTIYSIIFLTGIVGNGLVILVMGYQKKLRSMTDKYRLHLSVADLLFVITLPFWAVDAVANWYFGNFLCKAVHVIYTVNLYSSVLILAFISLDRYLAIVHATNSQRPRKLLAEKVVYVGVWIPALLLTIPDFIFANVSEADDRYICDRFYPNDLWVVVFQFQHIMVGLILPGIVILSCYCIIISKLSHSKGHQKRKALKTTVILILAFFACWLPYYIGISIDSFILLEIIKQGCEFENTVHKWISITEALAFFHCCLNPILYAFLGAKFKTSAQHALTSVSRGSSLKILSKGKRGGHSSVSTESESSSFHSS

Row | IC50 [1] | IC50 [2] | IC50 ([3]; 400.000 cells/sample) | Compound | other results
1 | 12.7 ± 4.6 nM | 13 ± 2 nM | – | C[C@@H]1C(=O)N[C@@H](CCCNC(=N)N)C(=O)N[C@@H](Cc2ccc3ccccc3c2)C(=O)NCC(=O)N[C@H](Cc2ccc(O)cc2)C(=O)N1CCCCCCNC(=N)NCCCCCCNC(=O)CN1CCN(CC(=O)O)CCN(CC(=O)O)CCN(CC(=O)O)CC1 (natGa complex, metal not drawn) [P5c] | –
2 | 17 ± 3.3 nM | – | – | C[C@@H]1C(=O)N[C@@H](CCCNC(=N)N)C(=O)N[C@@H](Cc2ccc3ccccc3c2)C(=O)NCC(=O)N[C@H](Cc2ccc(O)cc2)C(=O)N1CCCCCCNC(=N)NCCCCCCNC(=O)CN1CCN(CC(=O)O)CCN(CC(=O)O)CCN(CC(=O)O)CC1 (natLu complex, metal not drawn) [P5d] | –
3 | – | – | – | CC(=O)NCCCCNC(=N)NCCCCCCN1C(=O)[C@@H](Cc2ccc(O)cc2)NC(=O)CNC(=O)[C@H](Cc2ccc3ccccc3c2)NC(=O)[C@H](CCCNC(=N)N)NC(=O)[C@H]1C [P3, c(y-(NHex-Gua-But-Ac)a-R-Nal-G)] (cyclo([dY][X2]R[2Nal]G)) | IC50 ([3]; 200.000 cells/sample): 2.1 ± 0.5 nM
4 | 156 ± 7 nM | 156 ± 11 nM | – | C[C@@H]1C(=O)N[C@@H](CCCNC(=N)N)C(=O)N[C@@H](Cc2ccc3ccccc3c2)C(=O)NCC(=O)N[C@H](Cc2ccc(O)cc2)C(=O)N1CCCCCCNC(=N)NCCCCCCNC(=O)CCCCC[N+]1=C(/C=C/C=C/C=C2/N(C)c3ccc(S(=O)(=O)O)cc3C2(C)C)C(C)(C)c2cc(S(=O)(=O)[O-])ccc21 [P5e, Sulfo2-Cy5-Hex-CPCR4.3] | –
5 | 136 ± 26 nM | 115 ± 39 nM | – | C[C@@H]1C(=O)N[C@@H](CCCNC(=N)N)C(=O)N[C@@H](Cc2ccc3ccccc3c2)C(=O)NCC(=O)N[C@H](Cc2ccc(O)cc2)C(=O)N1CCCCCCNC(=N)NCCCCCCNC(=O)CCCCCN1/C(=C/C=C/C=C/C2=[N+](CCCCCC(=O)NCCCCCCNC(=N)NCCCCCCN3C(=O)[C@@H](Cc4ccc(O)cc4)NC(=O)CNC(=O)[C@H](Cc4ccc5ccccc5c4)NC(=O)[C@H](CCCNC(=N)N)NC(=O)[C@H]3C)c3ccc(S(=O)(=O)[O-])cc3C2(C)C)C(C)(C)c2cc(S(=O)(=O)O)ccc21 [P5f, Sulfo2-Cy5(Hex-CPCR4.3)2] | –
6 | 63 ± 23 nM | 91 ± 49 nM | – | C[C@@H]1C(=O)N[C@@H](CCCNC(=N)N)C(=O)N[C@@H](Cc2ccc3ccccc3c2)C(=O)NCC(=O)N[C@H](Cc2ccc(O)cc2)C(=O)N1CCCCCCNC(=N)NCCCCCCNC(=O)CCOCCOCCOCCOCCNC(=O)CCCCC[N+]1=C(/C=C/C=C/C=C2/N(C)c3ccc(S(=O)(=O)O)cc3C2(C)C)C(C)(C)c2cc(S(=O)(=O)[O-])ccc21 [P5g, Sulfo2-Cy5-PEG4-Hex-CPCR4.3] | IC50 ([3]; 200.000 cells/sample): 40 ± 5 nM
7 | – | – | 35 ± 2 nM | C[C@@H]1C(=O)N[C@@H](CCCNC(=N)N)C(=O)N[C@@H](Cc2ccc3ccccc3c2)C(=O)N[C@H](CS)C(=O)N[C@H](Cc2ccc(O)cc2)C(=O)N1CCCCCCNC(=N)N [Pc0, Cyclo(ya′(hexylguanidino)Rnalc)] (cyclo([2Nal][dC][dY][dAla(N-(6-guanidinohexyl))]R)) | –
8 | – | – | – | CN1C(=O)[C@@H](Cc2ccc(O)cc2)NC(=O)CNC(=O)[C@H](Cc2ccc3ccccc3c2)NC(=O)[C@H](CCCN=C(N)N)NC(=O)[C@H]1CCCNC(=O)c1ccc(CNC(=O)CN2CCN(CC(=O)[O-])CCN(CC(=O)[O-])CCN(CC(=O)[O-])CC2)cc1.[68Ga+3] [[^68Ga]pentixafor, cyclo(D-Tyr^1-D-[NMe]Orn^2(AMBS-DOTA)-Arg^3-Nal^4-Gly^5)] (cyclo([2Nal]G[dY][dNMeOrn]([4Amb-DOTA])R)) | affinity to mCXCR4 (in words) [4]: virtually no affinity
9 | – | – | – | cyclo(D-3-iodo-Tyr^1-D-[NMe]Orn^2(AMBS-DOTA)-Arg^3-Nal^4-Gly^5) [[^177Lu/^90Y]pentixather] | affinity to mCXCR4 (in words) [4]: virtually no affinity
10 | – | – | 78 ± 5 nM | cyclo[ya′(hexylguanidino)RNalc(-CH2—CO—NH—CH2-(m-aryl)-CH2—NH-^natCu-DOTA)] [Pc5d] | –
11 | – | – | 51 ± 4 nM | cyclo[ya′(hexylguanidino)RNalc(-CH2—CO—NH—CH2-(m-aryl)-CH2—NH-^natLu-DOTA)] [Pc5c] | –
12 | 63 ± 19 nM | 64 ± 29 nM | 31 ± 3 nM | cyclo[ya′(hexyluanidino)RNalc(-CH2—CO—NH—CH2-(m-aryl)-CH2—NH-^natGa-DOTA)] [Pc5b] | –
